Experimental data: patent US8653096B2, “Chemokine receptor antagonists and methods of use thereof” (Millennium Pharmaceuticals, Inc., priority 2001, dated 2014)

target: T1, RANTES/MIP-1α chemokine receptor (CCR1) in THP-1 cell membranes (Homo sapiens, UniProt P32246); experiment: Receptor binding assay: 125I-RANTES or 125I-MIP-1α binding to THP-1 cell membranes; settings: inhibitor concentration required for 50% inhibition of specific binding; 125I-RANTES or 125I-MIP-1α as ligand, THP-1 cell membranes; read-out: IC50
T1 construct: Membranes were prepared from THP-1 cells (ATCC #TIB202); host or cells: THP-1 cells (membrane preparation)
T1 sequence (P32246 1-355): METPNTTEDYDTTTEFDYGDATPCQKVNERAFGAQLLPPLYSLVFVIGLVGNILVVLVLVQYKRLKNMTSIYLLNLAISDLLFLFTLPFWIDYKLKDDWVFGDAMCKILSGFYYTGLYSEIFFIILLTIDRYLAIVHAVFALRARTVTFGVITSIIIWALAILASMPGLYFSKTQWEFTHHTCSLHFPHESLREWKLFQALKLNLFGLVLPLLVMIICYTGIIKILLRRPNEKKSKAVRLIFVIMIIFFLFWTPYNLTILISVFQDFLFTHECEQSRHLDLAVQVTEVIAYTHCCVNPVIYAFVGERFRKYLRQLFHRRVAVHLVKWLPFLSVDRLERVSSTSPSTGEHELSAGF

Compound	IC50 [µM]
CC(C)(O)c1ccc2c(c1)C(=CCCN1CCC(OCc3ccc(Cl)cc3)C1)c1cccnc1CO2 (centres unmarked) [Example 549, 2-(5-{3-[3-(4-Chloro-benzyloxy)-pyrrolidin-1-yl]-propylidene}-5,11-dihydro-10-oxa-1-aza-dibenzo[a,d]cyclohepten-7-yl)-propan-2-ol]	< 1
CC(C)CN(Cc1ccc(Cl)cc1)C1CCN(CCC=C2c3cc(C(C)(C)O)ccc3OCc3ncccc32)C1 (centres unmarked) [Example 550, 2-[5-(3-{3-[(4-Chloro-benzyl)-isobutyl-amino]-pyrrolidin-1-yl}-propylidene)-5,11-dihydro-10-oxa-1-aza-dibenzo[a,d]cyclohepten-7-yl]-propan-2-ol]	< 1
CC(C)(O)c1ccc2c(c1)C(=CCCN1CCC(N(CC(N)=O)Cc3ccc(Cl)cc3)C1)c1cccnc1CO2 (centres unmarked) [Example 552, 2-[(4-Chloro-benzyl)-(1-{3-[7-(1-hydroxy-1-methyl-ethyl)-11H-10-oxa-1-azadibenzo[a,d]cyclohepten-5-ylidene]-propyl}-pyrrolidin-3-yl)-amino]-acetamide]	< 1
CC(C)(O)c1ccc2c(c1)C(=CCCN1CCC(N(CCO)Cc3ccc(Cl)cc3)C1)c1cccnc1CO2 (centres unmarked) [Example 554, 2-[5-(3-{3-[(4-Chloro-benzyl)-(2-hydroxy-ethyl)-amino]-pyrrolidin-1-yl}-propylidene)-5,11-dihydro-10-oxa-1-aza-dibenzo[a,d]cyclohepten-7-yl]-propan-2-ol]	< 1
C[C@@H]1CN(CCC=C2c3cc(C(C)(C)O)ccc3OCc3ncccc32)CCN1c1ccc(Cl)cc1 [Example 557, 2-(5-{3-[4-(4-Chloro-phenyl)-3-(R)-methyl-piperazin-1-yl]-propylidene}-5,11-dihydro-10-oxa-1-aza-dibenzo[a,d]cyclohepten-7-yl)-propan-2-ol]	< 1
CC1(C)CN(CCC=C2c3cc(OCCN4CCOCC4)ccc3OCc3ncccc32)CCC1(O)c1ccc(Cl)cc1 (centres unmarked) [Example 559, 4-(4-Chloro-phenyl)-3,3-dimethyl-1-{3-[7-(2-morpholin-4-yl-ethoxy)-11H-10-oxa-1-aza-dibenzo[a,d]cyclohepten-5-ylidene]-propyl}-piperidin-4-ol]	< 1
CC(=O)N(Cc1ccc(Cl)cc1)C1CCN(CCC=C2c3cc(C(C)(C)O)ccc3OCc3ncccc32)C1 (centres unmarked) [Example 561, N-(4-Chloro-benzyl)-N-(1-{3-[7-(1-hydroxy-1-methyl-ethyl)-11H-10-oxa-1-aza-dibenzo[a,d]cyclohepten-5-ylidene]-propyl}-pyrrolidin-3-yl)-acetamide]	< 10
CCCCC(CC)C(=O)N(Cc1ccc(Cl)cc1)C1CCN(CCC=C2c3cc(C(C)(C)O)ccc3OCc3ncccc32)C1 (centres unmarked) [Example 566, 2-Ethyl-hexanoic acid (4-chloro-benzyl)-(1-{3-[7-(1-hydroxy-1-methyl-ethyl)-11H-10-oxa-1-aza-dibenzo[a,d]cyclohepten-5-ylidene]-propyl}-pyrrolidin-3-yl)-amide]	< 20
CC(C)(O)c1ccc2c(c1)C(=CCCN1CCC(N(Cc3ccc(Cl)cc3)C(=O)NC3CCCCC3)C1)c1cccnc1CO2 (centres unmarked) [Example 568, 1-(4-Chloro-benzyl)-3-cyclohexyl-1-(1-{3-[7-(1-hydroxy-1-methyl-ethyl)-11H-10-oxa-1-aza-dibenzo[a,d]cyclohepten-5-ylidene]-propyl}-pyrrolidin-3-yl)-urea]	< 1
CCNC(=O)N(Cc1ccc(Cl)cc1)C1CCN(CCC=C2c3cc(C(C)(C)O)ccc3OCc3ncccc32)C1 (centres unmarked) [Example 569, 1-(4-Chloro-benzyl)-3-ethyl-1-(1-{3-[7-(1-hydroxy-1-methyl-ethyl)-11H-10-oxa-1-aza-dibenzo[a,d]cyclohepten-5-ylidene]-propyl}-pyrrolidin-3-yl)-urea]	< 1
CC(C)(C)CC(C)(C)NC(=O)N(Cc1ccc(Cl)cc1)C1CCN(CCC=C2c3cc(C(C)(C)O)ccc3OCc3ncccc32)C1 (centres unmarked) [Example 570, 1-(4-Chloro-benzyl)-1-(1-{3-[7-(1-hydroxy-1-methyl-ethyl)-11H-10-oxa-1-aza-dibenzo[a,d]cyclohepten-5-ylidene]-propyl}-pyrrolidin-3-yl)-3-(1,1,3,3-tetramethyl-butyl)-urea]	< 10
CC(C)(O)c1ccc2c(c1)C(=CCCN1CCC(N(Cc3ccc(Cl)cc3)S(C)(=O)=O)C1)c1cccnc1CO2 (centres unmarked) [Example 571, N-(4-Chloro-benzyl)-N-(1-{3-[7-(1-hydroxy-1-methyl-ethyl)-11H-10-oxa-1-aza-dibenzo[a,d]cyclohepten-5-ylidene]-propyl}-pyrrolidin-3-yl)-methanesulfonamide]	< 10
Methyl 1-[3-(5,11-dihydro-7-methoxy[1]benzoxepino[2,3-b]pyridin-5-ylidene)propyl]-4-phenylpiperidin-4-carboxylate [Example 188]	> 10

The next lines start with the values.

IC50 [µM]	Compound
< 1	CC(C)N(Cc1ccc(Cl)cc1)C1CCN(CCC=C2c3cc(C(C)(C)O)ccc3OCc3ncccc32)C1 (centres unmarked) [Example 551, 2-[5-(3-{3-[(4-Chloro-benzyl)-isopropyl-amino]-pyrrolidin-1-yl}-propylidene)-5,11-dihydro-10-oxa-1-aza-dibenzo[a,d]cyclohepten-7-yl]-propan-2-ol]
< 1	CCNC(=O)CN(Cc1ccc(Cl)cc1)C1CCN(CCC=C2c3cc(C(C)(C)O)ccc3OCc3ncccc32)C1 (centres unmarked) [Example 553, 2-[(4-Chloro-benzyl)-(1-{3-[7-(1-hydroxy-1-methyl-ethyl)-11H-10-oxa-1-aza-dibenzo[a,d]cyclohepten-5-ylidene]-propyl}-pyrrolidin-3-yl)-amino]-N-ethyl-acetamide]
< 1	COC(=O)CCN(Cc1ccc(Cl)cc1)C1CCN(CCC=C2c3cc(C(C)(C)O)ccc3OCc3ncccc32)C1 (centres unmarked) [Example 555, 3-[(4-Chloro-benzyl)-(1-{3-[7-(1-hydroxy-1-methyl-ethyl)-11H-10-oxa-1-aza-dibenzo[a,d]cyclohepten-5-ylidene]-propyl}-pyrrolidin-3-yl)-amino]-propionic acid methyl ester]
< 1	C[C@H]1CN(CCC=C2c3cc(C(C)(C)O)ccc3OCc3ncccc32)CCN1c1ccc(Cl)cc1 [Example 556, 2-(5-{3-[4-(4-Chloro-phenyl)-3-(S)-methyl-piperazin-1-yl]-propylidene}-5,11-dihydro-10-oxa-1-aza-dibenzo[a,d]cyclohepten-7-yl)-propan-2-ol]
< 10	COC(=O)CC1CN(CCC=C2c3cc(C(C)(C)O)ccc3OCc3ncccc32)CCN1c1ccc(Cl)cc1 (centres unmarked) [Example 558, (1-(4-Chloro-phenyl)-4-{3-[7-(1-hydroxy-1-methyl-ethyl)-11H-10-oxa-1-aza-dibenzo[a,d]cyclohepten-5-ylidene]-propyl}-piperazin-2-yl)-acetic acid methyl ester]
< 10	CC(C)C(=O)N(Cc1ccc(Cl)cc1)C1CCN(CCC=C2c3cc(C(C)(C)O)ccc3OCc3ncccc32)C1 (centres unmarked) [Example 562, N-(4-Chloro-benzyl)-N-(1-{3-[7-(1-hydroxy-1-methyl-ethyl)-11H-10-oxa-1-aza-dibenzo[a,d]cyclohepten-5-ylidene]-propyl}-pyrrolidin-3-yl)-isobutyramide]
< 10	CCC(=O)N(Cc1ccc(Cl)cc1)C1CCN(CCC=C2c3cc(C(C)(C)O)ccc3OCc3ncccc32)C1 (centres unmarked) [Example 563, N-(4-Chloro-benzyl)-N-(1-{3-[7-(1-hydroxy-1-methyl-ethyl)-11H-10-oxa-1-aza-dibenzo[a,d]cyclohepten-5-ylidene]-propyl}-pyrrolidin-3-yl)-propionamide]
< 10	CC(C)(O)c1ccc2c(c1)C(=CCCN1CCC(N(Cc3ccc(Cl)cc3)C(=O)C3CCCC3)C1)c1cccnc1CO2 (centres unmarked) [Example 564, Cyclopentanecarboxylic acid (4-chloro-benzyl)-(1-{3-[7-(1-hydroxy-1-methyl-ethyl)-11H-10-oxa-1-aza-dibenzo[a,d]cyclohepten-5-ylidene]-propyl}-pyrrolidin-3-yl)-amide]
< 10	CC(C)(O)c1ccc2c(c1)C(=CCCN1CCC(N(Cc3ccc(Cl)cc3)C(=O)C3CCCCC3)C1)c1cccnc1CO2 (centres unmarked) [Example 565, Cyclohexanecarboxylic acid (4-chloro-benzyl)-(1-{3-[7-(1-hydroxy-1-methyl-ethyl)-11H-10-oxa-1-aza-dibenzo[a,d]cyclohepten-5-ylidene]-propyl}-pyrrolidin-3-yl)-amide]
< 1	CC(C)NC(=O)N(Cc1ccc(Cl)cc1)C1CCN(CCC=C2c3cc(C(C)(C)O)ccc3OCc3ncccc32)C1 (centres unmarked) [Example 567, 1-(4-Chloro-benzyl)-1-(1-{3-[7-(1-hydroxy-1-methyl-ethyl)-11H-10-oxa-1-aza-dibenzo[a,d]cyclohepten-5-ylidene]-propyl}-pyrrolidin-3-yl)-3-isopropyl-urea]
